A value given as a limit tells only on which side of the number the result lay.

The subject of one assay is Lox-IMVI melanoma cell line. Description: Lox-IMVI anti-proliferative assay (growth inhibition, Cell Titer-Glo). The settings on record: Homo sapiens; IC50 activity level in the cell-based Lox-IMVI anti-proliferative assay; read-out: Activity. Format: cell-based, human. The method, boiled down:
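First, compound was dispensed as a 10-point 3-fold series (0.5 nM–10 μM, duplicate). Then cells in RPMI + 10% FBS were added and grown 72 h at 37 °C with 0.2% DMSO. Finally, ATP luminescence was read and IC50 calculated versus DMSO control.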
On to `CC(C)(C)OC(=O)N1CC[C@H](Nc2ncc3nc(Nc4c(F)cc(Cl)cc4F)n([C@H]4CC[C@@H](C(N)=O)CC4)c3n2)[C@H](F)C1` [Example 155, (3R,4S)-tert-butyl 4-(9-((1s,4R)-4-carbamoylcyclohexyl)-8-(4-chloro-2,6-difluorophenylamino)-9H-purin-2-ylamino)-3-fluoropiperidine-1-carboxylate], for which the IC50 is > 1000 nM.
Turning to `Cc1cc(Cl)c(Nc2nc3cnc(NC4CCOCC4)nc3n2[C@H]2CC[C@@H](C(N)=O)CC2)cc1Cl` [Example 80, (1s,4s)-4-(8-(2,5-dichloro-4-methylphenylamino)-2-(tetrahydro-2H-pyran-4-ylamino)-9H-purin-9-yl)cyclohexanecarboxamide], the IC50 was in the range of 500 to 1000 nM.
On to `NC(=O)[C@H]1CC[C@@H](n2c(Nc3c(F)cc(Cl)cc3Cl)nc3cnc(NC4CC5(COC5)C4)nc32)CC1` [Example 195, (1s,4s)-4-(2-(2-oxaspiro[3.3]heptan-6-ylamino)-8-(2,4-dichloro-6-fluorophenylamino)-9H-purin-9-yl)cyclohexanecarboxamide], for which the IC50 is 250 to 500 nM.
On the same count and under the same terms, with `NC(=O)[C@H]1CC[C@@H](n2c(Nc3ccc(Cl)cc3Cl)nc3cnc(N[C@@H]4CCC[C@H]4O)nc32)CC1` [Example 261, (1S,4s)-4-(8-(2,4-dichlorophenylamino)-2-((1R,2R)-2-hydroxycyclopentylamino)-9H-purin-9-yl)cyclohexanecarboxamide] the figure was > 1000 nM; with `NC(=O)[C@H]1CC[C@@H](n2c(Nc3c(Cl)cc(Cl)cc3Cl)nc3cnc(N[C@H]4COC[C@@H]4O)nc32)CC1` [Example 313, (1R,4s)-4-(2-((3S,4R)-4-hydroxytetrahydrofuran-3-ylamino)-8-(2,4,6-trichlorophenylamino)-9H-purin-9-yl)cyclohexanecarboxamide], 500 to 1000 nM.
On to `CS(=O)(=O)N1CCC(Nc2ncc3nc(Nc4ccc(Cl)c(F)c4F)n([C@H]4CC[C@@H](C(N)=O)CC4)c3n2)CC1` [Example 298, (1s,4s)-4-(8-(4-chloro-2,3-difluorophenylamino)-2-(1-(methylsulfonyl)piperidin-4-ylamino)-9H-purin-9-yl)cyclohexanecarboxamide], for which the IC50 is > 1000 nM.
On to `CC[C@@H](CO)Nc1ncc2nc(Nc3ccc(Cl)cc3Cl)n([C@H]3CC[C@@H](C(N)=O)CC3)c2n1` [Example 149, (1R,4s)-4-(8-(2,4-dichlorophenylamino)-2-((S)-1-hydroxybutan-2-ylamino)-9H-purin-9-yl)cyclohexanecarboxamide], for which the IC50 is > 1000 nM.
The same measure, in the same setting: to `Cc1ccc(Nc2nc3cnc(NC4CCOCC4)nc3n2[C@H]2CC[C@@H](C(N)=O)CC2)c(Cl)c1F` [Example 84, (1s,4s)-4-(8-(2-chloro-3-fluoro-4-methylphenylamino)-2-(tetrahydro-2H-pyran-4-ylamino)-9H-purin-9-yl)cyclohexanecarboxamide] belongs 500 to 1000 nM.

The assay is the same for the next values; noted with them: Homo sapiens; Lox-IMVI anti-proliferative assay, IC50 activity level; read-out: Activity.
With `N#Cc1ccc(F)c(Nc2nc3cnc(NC4CCOCC4)nc3n2[C@H]2CC[C@@H](C(N)=O)CC2)c1F` [Example 447, (1s,4s)-4-(8-(3-cyano-2,6-difluorophenylamino)-2-(tetrahydro-2H-pyran-4-ylamino)-9H-purin-9-yl)cyclohexanecarboxamide], the IC50 is > 1000 nM.
The same measure, in the same setting: to `NC(=O)[C@H]1CC[C@@H](n2c(Nc3c(F)cc(Cl)cc3F)nc3cnc(N[C@@H]4CCCC[C@H](O)C4)nc32)CC1` [Example 438, (1S,4s)-4-(8-(4-chloro-2,6-difluorophenylamino)-2-((1R,3S)-3-hydroxycycloheptylamino)-9H-purin-9-yl)cyclohexanecarboxamide] belongs > 1000 nM; to `CC(CN1CCOCC1)Nc1ncc2nc(Nc3c(Cl)cc(Cl)cc3Cl)n([C@H]3CC[C@@H](C(N)=O)CC3)c2n1` (some centres unmarked) [Example 531, (1s,4s)-4-(2-(1-morpholinopropan-2-ylamino)-8-(2,4,6-trichlorophenylamino)-9H-purin-9-yl)cyclohexanecarboxamide], > 1000 nM; to `NC(=O)[C@H]1CC[C@@H](n2c(Nc3c(Cl)cc(C(F)(F)F)cc3Cl)nc3cnc(NC4CC5(COC5)C4)nc32)CC1` [Example 570, (1s,4s)-4-(2-(2-oxaspiro[3.3]heptan-6-ylamino)-8-(2,6-dichloro-4-(trifluoromethyl)phenylamino)-9H-purin-9-yl)cyclohexanecarboxamide], > 1000 nM.
On the same count and under the same terms, to `NC(=O)[C@H]1CC[C@@H](n2c(Nc3c(F)cc(Cl)cc3Cl)nc3cnc(N[C@H]4CCCC[C@H]4O)nc32)CC1` [Example 513, (1R,4s)-4-(8-(2,4-dichloro-6-fluorophenylamino)-2-((1S,2R)-2-hydroxycyclohexylamino)-9H-purin-9-yl)cyclohexanecarboxamide] belongs > 1000 nM.

Staying with this assay, now noted: Homo sapiens; Lox-IMVI melanoma cell line, anti-proliferative assay; read-out: Activity (IC50 activity level).
On to `Cc1ccc(S(=O)(=O)N2CCC[C@@H](Nc3ncc4nc(Nc5c(F)cc(C#N)cc5Cl)n([C@H]5CC[C@@H](C(N)=O)CC5)c4n3)C2)cc1` [Example 795, (1S,4s)-4-(8-(2-chloro-4-cyano-6-fluorophenylamino)-2-((R)-1-tosylpiperidin-3-ylamino)-9H-purin-9-yl)cyclohexanecarboxamide], for which the IC50 was > 1000 nM.
Regarding `NC(=O)[C@H]1CC[C@@H](n2c(Nc3c(F)cc(Cl)cc3F)nc3cnc(N[C@@H]4CCCN(Cc5ccccc5)C4)nc32)CC1` [Example 757, (1S,4s)-4-(2-((R)-1-benzylpiperidin-3-ylamino)-8-(4-chloro-2,6-difluorophenylamino)-9H-purin-9-yl)cyclohexanecarboxamide], the IC50 was > 1000 nM.
Turning to `N#Cc1cc(Cl)c(Nc2nc3cnc(NC[C@@H]4CCCC[C@@H]4O)nc3n2[C@H]2CC[C@@H](C(N)=O)CC2)c(Cl)c1` [Example 659, (1R,4s)-4-(8-(2,6-dichloro-4-cyanophenylamino)-2-(((1S,2S)-2-hydroxycyclohexyl)methylamino)-9H-purin-9-yl)cyclohexanecarboxamide], the IC50 was > 1000 nM.
Turning to `C[C@]1(C(N)=O)CC[C@@H](n2c(Nc3c(F)cc(C#N)cc3Cl)nc3cnc(N[C@H]4CC[C@H](O)C4)nc32)CC1` [Example 649, (1R,4s)-4-(8-(2-chloro-4-cyano-6-fluorophenylamino)-2-((1S,3S)-3-hydroxycyclopentylamino)-9H-purin-9-yl)-1-methylcyclohexanecarboxamide], the IC50 lay in the range of 250 to 500 nM.
For the compound `CS(=O)(=O)N1CCC[C@@H](Nc2ncc3nc(Nc4c(F)cc(C#N)cc4Cl)n([C@H]4CC[C@@H](C(N)=O)CC4)c3n2)C1` [Example 704, (1S,4s)-4-(8-(2-chloro-4-cyano-6-fluorophenylamino)-2-((R)-1-(methylsulfonyl)piperidin-3-ylamino)-9H-purin-9-yl)cyclohexanecarboxamide], the IC50 is > 1000 nM.
On to `N#Cc1cc(F)c(Nc2nc3cnc(N[C@@H]4CCCN(Cc5ccccc5)C4)nc3n2[C@H]2CC[C@@H](C(N)=O)CC2)c(Cl)c1` [Example 777, (1S,4s)-4-(2-((R)-1-benzylpiperidin-3-ylamino)-8-(2-chloro-4-cyano-6-fluorophenylamino)-9H-purin-9-yl)cyclohexanecarboxamide], for which the IC50 is > 1000 nM.
With `CC(C)N1CCC[C@@H](Nc2ncc3nc(Nc4c(F)cc(Cl)cc4Cl)n([C@H]4CC[C@@H](C(N)=O)CC4)c3n2)C1` [Example 741, (1S,4s)-4-(8-(2,4-dichloro-6-fluorophenylamino)-2-((R)-1-isopropylpiperidin-3-ylamino)-9H-purin-9-yl)cyclohexanecarboxamide], the IC50 was > 1000 nM.
